In US5041567A, “Antibacterial monic acid derivatives” (Beecham Group plc, priority 1982, dated 1991):
Converted amounts (≈) assume the structure as drawn.

Columns and labels:
P. mirabilis 889 = assay: MIC against human bacteria in vitro; assay type: cell-based; conditions: Proteus mirabilis, 889, 18 h
[1] = tested on: M. suipneumoniae J2206/183^b; assay: MIC against mycoplasma in vitro; assay type: cell-based; conditions: Mesomycoplasma hyopneumoniae, 144 h; M. suipneumoniae J2206/183^b; 6 days, 37° C.; read-out: MIC
M. suipneumoniae JF 435 = assay: MIC against mycoplasma in vitro; assay type: cell-based; conditions: Mesomycoplasma hyopneumoniae, JF435, 144 h; M. suipneumoniae JF 435; 6 days, 37° C.; read-out: MIC
Past. multocida PA2 = assay: MIC against veterinary bacteria in vitro; conditions: Pasteurella multocida, PA2, 18 h
Protocol: (§1) The activity of the compounds of the Examples against various veterinarily important bacteria, was assayed in vitro using two-fold serial dilutions in Diagnostic Sensitivity Test Agar inoculated with 10^4 organisms.

M. hyorhinis ATCC 23234 = assay: MIC against mycoplasma in vitro; assay type: cell-based; conditions: Mesomycoplasma hyorhinis, ATCC23234, 144 h; M. hyorhinis ATCC 23234; 6 days, 37° C.; read-out: MIC
M. suipneumoniae Str. 11 = assay: MIC against mycoplasma in vitro; assay type: cell-based; conditions: Mesomycoplasma hyopneumoniae, 144 h; M. suipneumoniae Str. 11; 6 days, 37° C.; read-out: MIC
Strep. dysgalactiae SPD1 = assay: MIC against veterinary bacteria in vitro; conditions: Streptococcus dysgalactiae, SPD1, 18 h
Protocol: as §1

M. dispar NCTC 10125 = assay: MIC against mycoplasma in vitro; assay type: cell-based; conditions: 144 h; M. dispar NCTC 10125; 6 days, 37° C.; read-out: MIC
[2] = tested on: Corynebacterium pyogenes CY1; assay: MIC against veterinary bacteria in vitro; conditions: CY1, 18 h
Protocol: as §1

Strep. pneumoniae CN33 = assay: MIC against human bacteria in vitro; assay type: cell-based; conditions: Streptococcus pneumoniae, CN33, 18 h
M. suipneumoniae UCD 1 = assay: MIC against mycoplasma in vitro; assay type: cell-based; conditions: Mesomycoplasma hyopneumoniae, UCD1, 144 h; M. suipneumoniae UCD 1; 6 days, 37° C.; read-out: MIC
Staph. aureus Oxford [3] = assay: MIC against veterinary bacteria in vitro; conditions: Staphylococcus aureus, 18 h
Protocol: as §1

[4] = tested on: Erysipelothrix rhusiopathiae NCTC 8163; assay: MIC against veterinary bacteria in vitro; conditions: Erysipelothrix rhusiopathiae, NCTC8163, 18 h
Protocol: as §1

[5] = tested on: M. bovigenitalium ATCC 14173; assay: MIC against mycoplasma in vitro; assay type: cell-based; conditions: 144 h; M. bovigenitalium ATCC 14173; 6 days, 37° C.; read-out: MIC
Bord. bronchiseptica B08 = assay: MIC against veterinary bacteria in vitro; conditions: Bordetella bronchiseptica, B08, 18 h
Protocol: as §1

M. bovis NCTC 10131 = assay: microbe, parasite or virus in culture; assay type: cell-based; conditions: NCTC10131, 144 h
M. gallisepticum S6 = assay: MIC against mycoplasma in vitro; assay type: cell-based; conditions: Mycoplasmoides gallisepticum, 144 h; M. gallisepticum S6; 6 days, 37° C.; read-out: MIC
[6] = tested on: Staph. aureus 152 (pen. sens); assay: MIC against veterinary bacteria in vitro; conditions: Staphylococcus aureus, 18 h
Protocol: as §1

M. suipneumoniae TAM 6N = assay: MIC against mycoplasma in vitro; assay type: cell-based; conditions: Mesomycoplasma hyopneumoniae, TAM6N, 144 h; M. suipneumoniae TAM 6N; 6 days, 37° C.; read-out: MIC
K. aerogenes A = assay: MIC against human bacteria in vitro; assay type: cell-based; conditions: Klebsiella aerogenes, 18 h
M. hyorhinis ATCC 25021 = assay: MIC against mycoplasma in vitro; assay type: cell-based; conditions: Mesomycoplasma hyorhinis, ATCC25021, 144 h; M. hyorhinis ATCC 25021; 6 days, 37° C.; read-out: MIC
M. suipneumoniae MS 16 = assay: MIC against mycoplasma in vitro; assay type: cell-based; conditions: Mesomycoplasma hyopneumoniae, MS16, 144 h; M. suipneumoniae MS 16; 6 days, 37° C.; read-out: MIC
[7] = tested on: Pasteurella multocida 1633; assay: MIC against human bacteria in vitro; assay type: cell-based; conditions: Pasteurella multocida, 1633, 18 h
Strep. faecalis I = assay: MIC against human bacteria in vitro; assay type: cell-based; conditions: Enterococcus faecalis, 18 h
[8] = tested on: M. suipneumoniae PW/C/210; assay: MIC against mycoplasma in vitro; assay type: cell-based; conditions: Mesomycoplasma hyopneumoniae, 144 h; M. suipneumoniae PW/C/210; 6 days, 37° C.; read-out: MIC
Sarcina lutea 8340 = assay: MIC against human bacteria in vitro; assay type: cell-based; conditions: Micrococcus luteus, 8340, 18 h
M. suipneumoniae NB12 = assay: MIC against mycoplasma in vitro; assay type: cell-based; conditions: Mesomycoplasma hyopneumoniae, 144 h; M. suipneumoniae NB12; Friis broth, 0.9% agarose, 6 days, 37° C.; read-out: MIC
Staph. aureus Oxford [9] = assay: MIC against human bacteria in vitro; assay type: cell-based; conditions: Staphylococcus aureus; Staph. aureus Oxford; 5% chocolated horse blood agar, 18 hours; read-out: MIC
Staph. aureus W2827 = assay: MIC against human bacteria in vitro; assay type: cell-based; conditions: Staphylococcus aureus, W2827, 18 h
[10] = tested on: Staph. aureus B4 (pen. resistant); assay: MIC against veterinary bacteria in vitro; conditions: Staphylococcus aureus, 18 h
Protocol: as §1

[11] = tested on: M. suipneumoniae NCTC 10110; assay: MIC against mycoplasma in vitro; assay type: cell-based; conditions: Mesomycoplasma hyopneumoniae, NCTC10110, 144 h; M. suipneumoniae NCTC 10110; 6 days, 37° C.; read-out: MIC
M. suipneumoniae HK(2) = assay: MIC against mycoplasma in vitro; assay type: cell-based; conditions: Mesomycoplasma hyopneumoniae, 144 h; M. suipneumoniae HK(2); 6 days, 37° C.; read-out: MIC
Strep. agalactiae 2788-B = assay: MIC against human bacteria in vitro; assay type: cell-based; conditions: Streptococcus agalactiae, 2788B, 18 h
[12] = tested on: Strep. suis (group D) SPS11; assay: MIC against veterinary bacteria in vitro; conditions: Streptococcus suis, 18 h
Protocol: as §1

S. typhimurium S18 = assay: MIC against veterinary bacteria in vitro; conditions: Salmonella enterica, TYPHIMURIUM, 18 h
Protocol: as §1

C/C(=C/c1ncc(-c2ccccc2)o1)C[C@@H]1OC[C@H](C[C@@H]2O[C@H]2[C@@H](C)[C@H](C)O)[C@@H](O)[C@H]1O [Example 2, 2-{3-[5-(2,3-epoxy-5-hydroxy-4-methylhexyl)-3,4-dihydroxytetrahydropyran-2-yl]-2-methylprop-1(Z)-enyl}-5-phenyloxazole]
MIC (P. mirabilis 889): > 50 µg/mL | MIC [1]: 10 µg/mL (≈ 22.5 µM) | MIC (M. suipneumoniae JF 435): > 10 µg/mL | MIC (Past. multocida PA2): 20 µg/mL (≈ 45.1 µM) | MIC (M. hyorhinis ATCC 23234): 10 µg/mL (≈ 22.5 µM) | MIC (M. suipneumoniae Str. 11): 10 µg/mL (≈ 22.5 µM) | MIC (Strep. dysgalactiae SPD1): 10 µg/mL (≈ 22.5 µM) | MIC (M. dispar NCTC 10125): 2.5 µg/mL (≈ 5.64 µM) | MIC [2]: > 80 µg/mL | MIC (Strep. pneumoniae CN33): > 50 µg/mL | MIC (M. suipneumoniae UCD 1): 10 µg/mL (≈ 22.5 µM) | MIC (Staph. aureus Oxford [3]): 20 µg/mL (≈ 45.1 µM) | MIC [4]: > 80 µg/mL | MIC [5]: 0.5 µg/mL (≈ 1.13 µM) | MIC (Bord. bronchiseptica B08): > 80 µg/mL | MIC (M. bovis NCTC 10131): 0.25 µg/mL (≈ 0.564 µM) | MIC (M. gallisepticum S6): > 10 µg/mL | MIC [6]: 20 µg/mL (≈ 45.1 µM) | MIC (M. suipneumoniae TAM 6N): > 10 µg/mL | MIC (K. aerogenes A): > 50 µg/mL | MIC (M. hyorhinis ATCC 25021): 5 µg/mL (≈ 11.3 µM) | MIC (M. suipneumoniae MS 16): 5 µg/mL (≈ 11.3 µM) | MIC [7]: > 50 µg/mL | MIC (Strep. faecalis I): > 50 µg/mL | MIC [8]: 5 µg/mL (≈ 11.3 µM) | MIC (Sarcina lutea 8340): > 50 µg/mL | MIC (M. suipneumoniae NB12): > 10 µg/mL | MIC (Staph. aureus Oxford [9]): 25 µg/mL (≈ 56.4 µM) | MIC (Staph. aureus W2827): > 50 µg/mL | MIC [10]: 20 µg/mL (≈ 45.1 µM) | MIC [11]: 10 µg/mL (≈ 22.5 µM) | MIC (M. suipneumoniae HK(2)): 10 µg/mL (≈ 22.5 µM) | MIC (Strep. agalactiae 2788-B): > 50 µg/mL | MIC [12]: > 80 µg/mL | MIC (S. typhimurium S18): > 80 µg/mL
